Key:
[1] = biological target: Quis (quisqualate) receptor; assay: [3H]AMPA (QUIS) receptor binding assay, synaptic plasma membranes; conditions: [3H]AMPA 10 nM, 100 mM KSCN, 0-4° C., 10 min
Method: Synaptic plasma membranes (SPM) were prepared as previously described [Monahan, J. B. and Michel, J., "Identification and Characterization of an N-methyl-D-aspartate-specific L[^3 H]glutamate Recognition Site in Synaptic Plasma Membranes, J. Neurochem., 48, 1699-1708 (1987)]. The SPM were stored at a concentration of 10-15 mg/ml in 0.32M sucrose, 0.5 mM EDTA, 1 mM MgSO4, 5 mM Tris/SO4, pH 7.4, under liquid nitrogen. The identity and purity of the subcellular fractions were confirmed by both electron microscopy and marker enzymes. Protein concentrations were determined by using a modification of the method of Lowry [Ohnishi, S. T. and Barr, J. K., "A Simplified Method of Quantitating Proteins Using the Biuret and Phenol Reagents", Anal. Biochem., 86, 193-197 (1978)].
The SPM were treated identically for the [^3 H]AMPA (QUIS), [^3 H]kainate and sodium-dependent L-[^3 H]-glumatate binding assays. The SPM were thawed at room temperature, diluted twenty-fold with 50 mM Tris/acetate, pH 7.4, incubated at 37° C. for 30 minutes, and centrifuged at 100,000 g for 15 minutes. The dilution, incubation, and centrifugation was repeated a total of three times.
The basic procedure for the receptor subclass binding assays was similar. This general method involved adding the radioligand (12.5 nM L-[^3 H]glutamate; 0.5 nM [^3 H]kainate or 10 nM [^3 H]AMPA) to the appropriate concentration of the test compound and initiating the assay by the addition of ice cold synaptic plasma membranes (0.2-0.45 mg). The binding assays were performed in 1.5 mL centrifuge tubes with the total volume adjusted to 1.0 mL. .Additions of test compounds were made in 50 mM Tris/acetate, pH 7.4 and incubations were carried out at 0°-4° C. The incubation time for the NMDA and the AMPA binding assays was 10 minutes, for the kainate binding assay 60 minutes and for the sodium-dependent glutamate binding assay 15 minutes. The AMPA binding assay contained 100 mM KSCN and the sodium-dependent glutamate binding assay contained 150 mM sodium acetate in addition to the previously described reagents.
To terminate the incubation, the samples were centrifuged for 15 minutes at 12,000 g and 4° C. in a Beckman Microfuge 12. The supernatant was aspirated and the pelleted membranes dissolved in Beckman BTS-450 tissue solubilizer for a minimum of 6 hours at room temperature. Beckman MP scintillation cocktail containing 7 mL/1 acetic acid was then added and the samples counted on a Beckman LS 5800 or 3801 liquid scintillation counter with automatic corrections for quenching and counting efficiency.
Nonspecific binding was defined as the residual binding in the presence of either excess L-glutamate (0.1-0.4 mM), kainate (0.01 mM), or NMDA (0.5 mM), and was 15-25% of the total binding in the NMDA binding assay, 19-27% in the AMPA binding assay, 20-30% in the kainate binding assay and 10-15% in the sodium-dependent binding assay. Radioligand binding to the synaptic plasma membranes was analyzed using Scatchard and Hill transformations and the Ki values of the compounds determined using logit-log transformations. Calculations and regression analysis were performed using templates developed for Lotus 1, 2, 3 as previously described [Pullan, L. M. "Automated Radioligand Receptor Binding Analysis with Templates for Lotus", Computer Appln. Biosci., 3 131 (1987)]. Binding results are reported in Table II for example compounds of the invention. […]

hippocampal neurons = assay: Glutamate Toxicity Survival Assay, cultured hippocampal neurons (MTT); type: cell-based, Sprague-Dawley rat; conditions: 5 μM compound
Method: Hippocampal neurons were obtained from embryonic day 17 Sprague-Dawley rats. The brains were removed and the hippocampus dissected, placed in ice-cold Leibovitz L-15 medium, carefully stripped of any remaining meninges, and minced into small pieces using scissors. […] Following incubation, the cells were rinsed with 10% serum-containing medium and dissociated by gentle trituration using a reduced bore diameter Pasteur pipet. The cells were plated on a polylysine-coated (0.5 rg/ml, Sigma) 96-well microtiter plates at 30,000 cells/well.
The neuronal survival assay utilized the compound MTT [3-(4,5-dimethylthiazol-2-yl)-2,5-diphenyl tetrazolium bromide], a pale yellow substrate that is cleaved by the mitochondrial enzyme succinate-dehydrogenase to yield a dark blue formazan product. This process requires active mitochondria, present only in live cells. Cultures of hippocampal neurons grown in 96-well plates were incubated with 1 mg/ml MTT at 36° C. in a 10% CO2 -in-air incubator for 30-60 minutes. At the end of the incubation, a dark blue precipitate outlined only viable cells. The precipitate was then solubilized using 0.08N HCl/isopropanol mixture and the absorbance measured with an ELISA plate reader (Dynatech MR600) using a test wavelength of 570 nm and a reference wavelength of 630 nm. The resulting optical density is directly proportional to the number of viable cells.

[2] = tested on: NMDA-induced focal potentials, hippocampal slices; assay: In Vitro Hippocampal Slice Assay (NMDA-induced focal potentials); type: cell-based, Sprague-Dawley albino rat; conditions: Rattus norvegicus; 100 μM NMDA pressure ejections, recorded in CA1
Method: Hippocampal slices were prepared from male, Sprague-Dawley albino rats (100-300 gm) and maintained as described previously [Ganong, A. H., Lanthorn, T. H., Cotman, C. W., "Kynurenic Acid Synaptic and Acidic Amino Acid-Induced Responses in the Rat Hippocampus and Spinal Cord", Brain Research, 273 170-174 (1983)]. The hippocampus was removed in the cold and sliced to a thickness of 450 microns on a McIlwain tissue chopper in experimental medium (124 mM NaCl, 2.5 mM KCl, 1.0 mM KH2 PO4, 26.4 mM NaHCO3, 2 mM CaCl2, 1.5 mM MgSO4, and 10 mM D-glucose) with 10 mM Hepes. The slices were quickly transferred to a static bath and rinsed with experimental medium (without Hepes) and maintained at 34°-35° C. in a humidified chamber with 95% oxygen and 5% carbon dioxide. As needed, slices were transferred from the static bath to a small perfusion chamber where they were secured with an upper net and completely submerged in a continuously flowing experimental medium (2.0 ml/min). The Schaffer collateral/commissural-CAl (S/C-CAl) synaptic response was stimulated (0.05 Hz; 0.01 msec. single duration shock) with bipolar electrodes (Rhodes, Inc.) from stratum radiatum at the CA2-CA3 border. Evoked field EPSPs and drug-induced focal potentials were recorded in the middle portion of CAl. […]

SMILES: NC(C(=O)O)c1ccc(CP(=O)(O)O)cc1 (stereo not drawn) [Example VI, 4-(Phosphonomethyl)phenylglycine]
- Ki [1]: > 300 µM
- protection of neurons from glutamate toxicity (hippocampal neurons): Significant protection
- IC50 [2]: 4 µM
